Data published in ChEMBL document CHEMBL5058642, “Data for DCP probe TP-051” (2022).
Values belong to the molecule of their own block, whether it stands above or below them.

Experiments:
[1] = GPCRScan assay: inhibition of GABA/PBR; parameters: species or system Rattus norvegicus; radioligand conc. used [nm] 0.3 – 2.0, parental cells brain tissue
[2] = species on record: Homo sapiens; assay: Inhibition of Nicotinic Acetylcholine at compound concentration of 10.0 uM in the Eurofins-Panlabs radioligand binding assay (Eurofins_assay_258590); assay type: protein-complex assay; conditions: Compound concentration 10.0 uM
[3] = target: Cannabinoid receptor 1 (Homo sapiens) (UniProt P21554); assay: Cannabinoid CB1 Eurofins-Panlabs radioligand binding assay; conditions: Compound concentration 10.0 uM
Sequence of Cannabinoid receptor 1 (Homo sapiens) (P21554 whole entry): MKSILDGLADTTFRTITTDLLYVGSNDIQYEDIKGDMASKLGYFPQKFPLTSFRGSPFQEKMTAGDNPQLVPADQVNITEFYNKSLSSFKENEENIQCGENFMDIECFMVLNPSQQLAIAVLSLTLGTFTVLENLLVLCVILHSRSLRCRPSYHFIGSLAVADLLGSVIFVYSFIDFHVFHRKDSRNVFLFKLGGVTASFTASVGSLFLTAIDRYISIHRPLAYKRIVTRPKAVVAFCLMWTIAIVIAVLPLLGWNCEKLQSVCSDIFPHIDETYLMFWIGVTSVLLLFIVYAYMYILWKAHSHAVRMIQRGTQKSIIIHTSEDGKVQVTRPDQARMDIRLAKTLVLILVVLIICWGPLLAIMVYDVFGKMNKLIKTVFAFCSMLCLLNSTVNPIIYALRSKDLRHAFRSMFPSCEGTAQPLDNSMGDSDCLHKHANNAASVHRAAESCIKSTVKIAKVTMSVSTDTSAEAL

[4] = species on record: Rattus norvegicus; assay: Serotonin (5-Hydroxytryptamine) 5-HT2, Non-Selective Eurofins-Panlabs radioligand binding assay; assay type: protein assay; conditions: Compound concentration 10.0 uM
[5] = target: Free fatty acid receptor 1 (Homo sapiens, UniProt O14842); assay: FFAR1 binding assay
Sequence of Free fatty acid receptor 1 (O14842 whole entry): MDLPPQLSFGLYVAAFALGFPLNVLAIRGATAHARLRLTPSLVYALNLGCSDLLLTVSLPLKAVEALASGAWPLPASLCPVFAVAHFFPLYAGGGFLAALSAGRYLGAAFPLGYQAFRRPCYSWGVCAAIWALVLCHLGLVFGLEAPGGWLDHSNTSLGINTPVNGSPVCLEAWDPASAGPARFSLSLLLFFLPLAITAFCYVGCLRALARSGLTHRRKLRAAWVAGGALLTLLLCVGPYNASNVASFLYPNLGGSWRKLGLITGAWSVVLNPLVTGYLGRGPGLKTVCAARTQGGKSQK

[6] = target: Muscarinic acetylcholine receptor M4 (Homo sapiens) (UniProt P08173); conditions: Compound concentration 10.0 uM
[7] = target: GABA-A receptor; anion channel (Rattus norvegicus) (UniProt O09028+P15431+P18506+P18508+P19969+P20236+P23574+P23576+P28471+P28473+P30191+P62813+P63079+P63138+Q91ZM7+Q9ES14); conditions: Compound concentration 10.0 uM
[8] = target: Sodium-dependent serotonin transporter (Homo sapiens) (UniProt P31645); conditions: Compound concentration 10.0 uM
Sequence of Sodium-dependent serotonin transporter (Homo sapiens) (P31645 whole entry, looked up): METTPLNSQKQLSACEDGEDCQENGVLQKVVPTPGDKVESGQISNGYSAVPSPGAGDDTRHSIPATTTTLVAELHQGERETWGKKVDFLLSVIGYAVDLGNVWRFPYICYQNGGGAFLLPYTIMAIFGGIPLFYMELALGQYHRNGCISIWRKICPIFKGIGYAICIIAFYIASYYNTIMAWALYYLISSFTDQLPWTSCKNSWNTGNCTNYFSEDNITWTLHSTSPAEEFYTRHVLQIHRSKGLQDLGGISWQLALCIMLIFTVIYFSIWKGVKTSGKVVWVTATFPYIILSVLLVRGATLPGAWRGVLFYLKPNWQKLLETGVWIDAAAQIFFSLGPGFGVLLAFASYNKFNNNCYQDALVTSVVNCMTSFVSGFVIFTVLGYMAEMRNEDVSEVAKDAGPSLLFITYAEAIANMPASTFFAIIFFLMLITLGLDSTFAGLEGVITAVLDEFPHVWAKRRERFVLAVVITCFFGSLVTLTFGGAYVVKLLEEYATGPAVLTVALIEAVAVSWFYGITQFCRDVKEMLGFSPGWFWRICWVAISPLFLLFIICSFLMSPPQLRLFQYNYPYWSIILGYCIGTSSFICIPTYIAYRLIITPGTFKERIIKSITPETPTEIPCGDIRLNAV

[9] = target: D(4) dopamine receptor (Homo sapiens, UniProt P21917); assay: GPCRScan assay: inhibition of D4; parameters: radioligand conc. used [nm] 0.6 – 1.7, parental cells Stable HEK
[10] = target: Beta-2 adrenergic receptor (Homo sapiens, UniProt P07550); assay: GPCRScan assay: inhibition of Beta2; parameters: radioligand conc. used [nm] 0.5 - 1.0, parental cells HEK Flp-In
Sequence of Beta-2 adrenergic receptor (P07550 whole entry): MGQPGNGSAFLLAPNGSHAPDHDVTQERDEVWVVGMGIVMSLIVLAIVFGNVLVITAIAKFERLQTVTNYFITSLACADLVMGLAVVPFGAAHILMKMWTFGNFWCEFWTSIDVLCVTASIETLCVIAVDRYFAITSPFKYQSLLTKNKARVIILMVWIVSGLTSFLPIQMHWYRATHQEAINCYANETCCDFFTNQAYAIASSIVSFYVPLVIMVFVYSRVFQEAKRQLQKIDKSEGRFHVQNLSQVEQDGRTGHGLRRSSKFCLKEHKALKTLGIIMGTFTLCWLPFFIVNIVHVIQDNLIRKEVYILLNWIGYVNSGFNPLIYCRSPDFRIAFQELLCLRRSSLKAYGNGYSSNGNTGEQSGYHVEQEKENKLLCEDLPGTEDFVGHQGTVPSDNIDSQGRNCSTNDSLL

[11] = target: Prostaglandin G/H synthase 1 (Homo sapiens) (UniProt P23219); assay: Inhibition of Cyclooxygenase COX-1 at compound concentration of 10.0 uM in the Eurofins-Panlabs enzyme assay (Eurofins_assay_116020); conditions: Compound concentration 10.0 uM
[12] = target: Prostaglandin G/H synthase 2 (Homo sapiens) (UniProt P35354); assay: Inhibition of Cyclooxygenase COX-2 at compound concentration of 10.0 uM in the Eurofins-Panlabs enzyme assay (Eurofins_assay_118010); parameters: substrate with concentration 0.3 uM Arachidonic acid, incubation time 15 min, incubation temperature 37 C; conditions: Compound concentration 10.0 uM
[13] = target: MAO-A (Homo sapiens, UniProt P21397); assay: Inhibition of Monoamine Oxidase MAO-A at compound concentration of 10.0 uM in the Eurofins-Panlabs enzyme assay (Eurofins_assay_140010); parameters: substrate with concentration 50 uM Kynuramine, incubation time 60 min, incubation temperature 37 C; conditions: recombinant human MAO-A expressed in insect Hi5 cells, probe Kynuramine, 50 uM, compound concentration 10 uM
Sequence of MAO-A (P21397 whole entry): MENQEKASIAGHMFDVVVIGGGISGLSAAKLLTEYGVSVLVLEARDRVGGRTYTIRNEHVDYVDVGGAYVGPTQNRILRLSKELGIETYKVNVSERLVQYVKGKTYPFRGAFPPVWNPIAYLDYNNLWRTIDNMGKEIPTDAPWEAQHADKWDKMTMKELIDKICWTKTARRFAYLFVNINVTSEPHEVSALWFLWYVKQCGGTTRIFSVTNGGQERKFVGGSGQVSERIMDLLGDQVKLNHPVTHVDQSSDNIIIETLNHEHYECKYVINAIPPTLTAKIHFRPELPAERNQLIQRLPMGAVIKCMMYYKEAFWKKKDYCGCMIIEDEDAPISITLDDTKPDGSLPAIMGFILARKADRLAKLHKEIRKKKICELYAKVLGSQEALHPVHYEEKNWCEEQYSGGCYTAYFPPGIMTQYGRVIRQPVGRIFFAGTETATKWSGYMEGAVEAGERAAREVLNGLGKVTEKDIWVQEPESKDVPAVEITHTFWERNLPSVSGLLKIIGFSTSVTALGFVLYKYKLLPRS

[14] = target: Interstitial collagenase (Homo sapiens) (UniProt P03956); assay: Inhibition of Peptidase, Matrix Metalloproteinase-1 (MMP-1) at 10 µM in the Eurofins-Panlabs enzyme assay (Eurofins_assay_114110); conditions: Compound concentration 10.0 uM
Sequence of Interstitial collagenase (Homo sapiens) (P03956 whole entry): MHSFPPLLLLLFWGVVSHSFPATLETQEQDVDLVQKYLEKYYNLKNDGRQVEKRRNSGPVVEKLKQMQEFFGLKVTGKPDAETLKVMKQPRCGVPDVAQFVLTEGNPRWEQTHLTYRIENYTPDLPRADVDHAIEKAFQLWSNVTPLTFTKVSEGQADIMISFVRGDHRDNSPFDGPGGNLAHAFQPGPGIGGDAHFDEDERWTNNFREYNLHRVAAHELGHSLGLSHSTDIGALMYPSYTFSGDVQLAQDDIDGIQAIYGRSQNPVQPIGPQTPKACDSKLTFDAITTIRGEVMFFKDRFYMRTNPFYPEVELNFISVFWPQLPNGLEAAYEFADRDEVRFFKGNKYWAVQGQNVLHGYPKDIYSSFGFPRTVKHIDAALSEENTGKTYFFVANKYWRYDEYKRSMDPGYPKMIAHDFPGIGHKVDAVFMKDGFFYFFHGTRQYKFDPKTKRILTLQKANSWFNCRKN

[15] = target: Phosphodiesterase 3 (Homo sapiens) (UniProt Q14432+Q13370); assay: Inhibition of Phosphodiesterase PDE3 at compound concentration of 10.0 uM in the Eurofins-Panlabs enzyme assay (Eurofins_assay_152000); assay type: protein assay; parameters: substrate with concentration 1.01 uM [3H] cAMP + cAMP, incubation time 20 min, incubation temperature 25 C; conditions: Compound concentration 10.0 uM
[16] = species on record: Homo sapiens; assay: Inhibition of Phosphodiesterase PDE4 at compound concentration of 10.0 uM in the Eurofins-Panlabs enzyme assay (Eurofins_assay_154000); assay type: protein assay; parameters: substrate with concentration 1.01 uM [3 H]cAMP + cAMP, incubation time 20 min, incubation temperature 25 C; conditions: Compound concentration 10.0 uM
[17] = target: Mitogen-activated protein kinase 3 (Homo sapiens) (UniProt P27361); assay: Inhibition of Protein Serine/Threonine Kinase, MAPK3 (ERK1) at 10 µM in the Eurofins-Panlabs enzyme assay (Eurofins_assay_171000); conditions: Compound concentration 10.0 uM
Sequence of Mitogen-activated protein kinase 3 (Homo sapiens) (P27361 whole entry): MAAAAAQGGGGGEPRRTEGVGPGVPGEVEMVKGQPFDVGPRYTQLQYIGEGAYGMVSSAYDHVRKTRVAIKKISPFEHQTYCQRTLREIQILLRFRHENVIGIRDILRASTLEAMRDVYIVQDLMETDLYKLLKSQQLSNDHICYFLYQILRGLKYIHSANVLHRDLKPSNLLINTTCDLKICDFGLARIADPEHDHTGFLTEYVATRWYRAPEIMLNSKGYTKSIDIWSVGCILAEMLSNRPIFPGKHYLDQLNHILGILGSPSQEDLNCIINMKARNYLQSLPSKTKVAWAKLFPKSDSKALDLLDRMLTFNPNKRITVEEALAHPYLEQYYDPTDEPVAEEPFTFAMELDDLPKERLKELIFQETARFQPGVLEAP

[18] = target: MAO-B (Homo sapiens, UniProt P27338); assay: Inhibition of Monoamine Oxidase MAO-B at compound concentration of 10.0 uM in the Eurofins-Panlabs enzyme assay (Eurofins_assay_140120); parameters: substrate with concentration 50 uM Kynuramine, incubation time 60 min, incubation temperature 37 C; conditions: recombinant human MAO-B expressed in insect Hi5 cells, probe Kynuramine, 50 uM, compound concentration 10 uM
[19] = target: Vasopressin V2 receptor (Homo sapiens) (UniProt P30518); assay: Inhibition of Vasopressin V2 at 10 µM in the Eurofins-Panlabs radioligand binding assay (Eurofins_assay_287610); parameters: ligand concentration 4 nM; conditions: Compound concentration 10.0 uM
[20] = target: Neprilysin (Homo sapiens) (UniProt P08473); assay: Peptidase, Metalloproteinase, Neutral Endopeptidase Eurofins-Panlabs enzyme assay; conditions: Compound concentration 10.0 uM
[21] = species on record: Bos taurus; assay: Phosphodiesterase PDE6 Eurofins-Panlabs enzyme assay; parameters: substrate with concentration [3H] cGMP + cGMP, incubation time 20 min, incubation temperature 25 °C; conditions: Compound concentration 10.0 uM
[22] = species on record: Homo sapiens; assay: Protein Serine/Threonine Kinase, MAPK14 (p38α) Eurofins-Panlabs enzyme assay; parameters: substrate with concentration 10 µg/mL Myelin Basic Protein (MBP), incubation time 60 min, incubation temperature 25 °C; conditions: Compound concentration 10.0 uM
[23] = target: Epidermal growth factor receptor (Homo sapiens) (UniProt P00533); assay: Protein Tyrosine Kinase, EGF Receptor Eurofins-Panlabs enzyme assay; parameters: substrate with concentration 10 µg/mL Poly(Glu:Tyr), incubation time 60 min, incubation temperature 25 °C; conditions: Compound concentration 10.0 uM
[24] = target: Sodium-dependent serotonin transporter (Homo sapiens) (UniProt P31645); assay: Transporter, Serotonin (5- Hydroxytryptamine) (SERT) Eurofins-Panlabs radioligand binding assay; parameters: ligand concentration 0.15 nM, non-specific ligand with concentration 10 µM Imipramine, incubation time 3 h, incubation temperature 4 °C; conditions: Compound concentration 10.0 uM
[25] = target: Cannabinoid receptor 1 (Homo sapiens) (UniProt P21554); assay: Inhibition of Cannabinoid CB1 at compound concentration of 10.0 uM in the Eurofins-Panlabs radioligand binding assay (Eurofins_assay_217050); parameters: ligand concentration 2 nM; conditions: Compound concentration 10.0 uM
[26] = species on record: Rattus norvegicus; assay: ATPase, Ca2+ Eurofins-Panlabs enzyme assay; conditions: Compound concentration 10.0 uM
[27] = species on record: Canis lupus familiaris; assay: ATPase, Na+/K+ Eurofins-Panlabs enzyme assay; conditions: Compound concentration 10.0 uM
[28] = target: Coagulation factor X (Homo sapiens) (UniProt P00742); assay: Peptidase, Factor Xa Eurofins-Panlabs enzyme assay; parameters: substrate with concentration; conditions: Compound concentration 10.0 uM
Sequence of Coagulation factor X (Homo sapiens) (P00742 41-179 limits assumed): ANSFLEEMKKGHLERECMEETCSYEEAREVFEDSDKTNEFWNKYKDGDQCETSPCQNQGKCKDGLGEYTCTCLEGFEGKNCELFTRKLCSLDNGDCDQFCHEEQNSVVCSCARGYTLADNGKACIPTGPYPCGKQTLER
Sequence of Coagulation factor X (Homo sapiens) (P00742 235-488 limits assumed): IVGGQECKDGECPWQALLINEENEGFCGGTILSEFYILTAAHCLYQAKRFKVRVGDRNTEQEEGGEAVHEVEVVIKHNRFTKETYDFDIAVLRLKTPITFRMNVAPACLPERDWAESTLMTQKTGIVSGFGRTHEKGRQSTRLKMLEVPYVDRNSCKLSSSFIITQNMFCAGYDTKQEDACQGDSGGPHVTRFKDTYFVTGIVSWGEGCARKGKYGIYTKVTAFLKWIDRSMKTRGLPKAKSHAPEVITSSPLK

[29] = target: Collagenase 3 (Homo sapiens) (UniProt P45452); assay: Peptidase, Matrix Metalloproteinase-13 (MMP-13) Eurofins-Panlabs enzyme assay; parameters: substrate with concentration; conditions: Compound concentration 10.0 uM
[30] = target: Matrix metalloproteinase-14 (Homo sapiens) (UniProt P50281); assay: Peptidase, Matrix Metalloproteinase-14 (MMP-14) Eurofins-Panlabs enzyme assay; parameters: substrate with concentration; conditions: Compound concentration 10.0 uM
[31] = target: Renin (Homo sapiens) (UniProt P00797); assay: Peptidase, Renin Eurofins-Panlabs enzyme assay; conditions: Compound concentration 10.0 uM
[32] = target: Prothrombin (Homo sapiens) (UniProt P00734); assay: Peptidase, Thrombin Eurofins-Panlabs enzyme assay; parameters: substrate with concentration; conditions: Compound concentration 10.0 uM
[33] = target: Disintegrin and metalloproteinase domain-containing protein 17 (Homo sapiens) (UniProt P78536); assay: Peptidase, Tumor Necrosis Factor-alpha Converting Enzyme (TACE) Eurofins-Panlabs enzyme assay; parameters: substrate with concentration; conditions: Compound concentration 10.0 uM
[34] = target: Phospholipase A2 (Sus scrofa) (UniProt A0A8D1VEY7); assay: Phospholipase PLA2-I Eurofins-Panlabs enzyme assay; parameters: substrate with concentration; conditions: Compound concentration 10.0 uM
Sequence of Phospholipase A2 (Sus scrofa) (A0A8D1VEY7 as listed by the source): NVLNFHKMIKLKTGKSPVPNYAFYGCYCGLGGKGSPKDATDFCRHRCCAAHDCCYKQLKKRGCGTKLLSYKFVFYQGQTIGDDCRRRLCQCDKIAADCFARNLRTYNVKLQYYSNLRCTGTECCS

[35] = target: Ca2+/calmodulin-dependent protein kinase II (CaM kinase II) (Rattus norvegicus) (UniProt P11275+P08413+P15791+P11730); assay: Protein Serine/Threonine Kinase, Ca2+/Calmodulin-Dep.II Eurofins-Panlabs enzyme assay; conditions: Compound concentration 10.0 uM
[36] = target: 5-hydroxytryptamine receptor 2A (Homo sapiens) (UniProt P28223); conditions: Compound concentration 10.0 uM
[37] = target: 5-hydroxytryptamine receptor 5A (Homo sapiens) (UniProt P47898); conditions: Compound concentration 10.0 uM
[38] = target: 5-hydroxytryptamine receptor 7 (Homo sapiens) (UniProt P34969); conditions: Compound concentration 10.0 uM
[39] = target: Muscarinic acetylcholine receptor M3 (Homo sapiens) (UniProt P20309); conditions: Compound concentration 10.0 uM
Sequence of Muscarinic acetylcholine receptor M3 (Homo sapiens) (P20309 whole entry, looked up): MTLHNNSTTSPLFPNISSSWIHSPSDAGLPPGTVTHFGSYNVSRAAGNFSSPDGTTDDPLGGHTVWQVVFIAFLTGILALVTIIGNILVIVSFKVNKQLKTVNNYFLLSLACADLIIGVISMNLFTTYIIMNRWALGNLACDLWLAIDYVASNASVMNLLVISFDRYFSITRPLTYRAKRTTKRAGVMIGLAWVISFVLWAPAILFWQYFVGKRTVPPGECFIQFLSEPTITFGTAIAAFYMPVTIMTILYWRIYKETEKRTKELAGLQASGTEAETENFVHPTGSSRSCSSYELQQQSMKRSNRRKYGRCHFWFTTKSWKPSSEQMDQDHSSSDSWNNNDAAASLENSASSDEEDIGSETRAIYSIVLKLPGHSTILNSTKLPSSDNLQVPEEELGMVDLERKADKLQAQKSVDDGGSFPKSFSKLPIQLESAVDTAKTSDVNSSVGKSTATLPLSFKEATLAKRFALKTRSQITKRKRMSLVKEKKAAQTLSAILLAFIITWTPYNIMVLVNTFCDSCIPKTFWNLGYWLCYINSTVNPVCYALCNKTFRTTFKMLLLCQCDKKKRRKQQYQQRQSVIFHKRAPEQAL

[40] = target: Alpha-1D adrenergic receptor (Homo sapiens) (UniProt P25100); conditions: Compound concentration 10.0 uM
Sequence of Alpha-1D adrenergic receptor (Homo sapiens) (P25100 whole entry): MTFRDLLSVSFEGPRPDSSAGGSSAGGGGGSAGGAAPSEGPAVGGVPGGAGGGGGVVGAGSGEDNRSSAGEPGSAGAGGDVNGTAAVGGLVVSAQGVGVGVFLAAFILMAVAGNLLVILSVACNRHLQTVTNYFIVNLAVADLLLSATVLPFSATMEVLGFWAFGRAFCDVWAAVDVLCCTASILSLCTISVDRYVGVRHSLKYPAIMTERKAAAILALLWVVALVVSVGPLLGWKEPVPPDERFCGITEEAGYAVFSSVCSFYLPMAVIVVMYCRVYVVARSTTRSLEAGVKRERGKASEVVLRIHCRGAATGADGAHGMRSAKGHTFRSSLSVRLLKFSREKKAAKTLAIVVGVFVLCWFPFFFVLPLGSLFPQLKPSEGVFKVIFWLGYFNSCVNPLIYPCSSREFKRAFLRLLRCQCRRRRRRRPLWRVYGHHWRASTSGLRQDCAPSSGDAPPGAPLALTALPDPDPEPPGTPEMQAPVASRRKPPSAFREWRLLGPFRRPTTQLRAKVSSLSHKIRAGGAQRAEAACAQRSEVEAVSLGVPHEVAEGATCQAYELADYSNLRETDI

[41] = species on record: Homo sapiens; conditions: Compound concentration 10.0 uM

Structure (SMILES): Cc1cc(OC2CCS(=O)(=O)CC2)cc(C)c1-c1cccc(COc2ccc(C(=O)O)c(F)c2)c1
Ki [1]: 2.75 µM
pKi [1]: 5.56
inhibition [2]: -5%
inhibition [3]: -6%
inhibition [4]: -3%
Ki [5]: > 10 µM (not active)
inhibition [6]: -4.72%
inhibition [7]: -1%
inhibition [8]: 2%

Ki [9]: 1.23 µM
Ki [10]: > 10 µM
pKi [10]: < 5
inhibition [11]: 14%
inhibition [12]: -5%
inhibition at 60 min, 10 µM [13]: 7% (not active)
inhibition [14]: 2%
inhibition [15]: 3%
inhibition [16]: 26%
inhibition [17]: 30%
inhibition at 60 min, 10 µM [18]: 6% (not active)
inhibition [19]: 0%
inhibition [20]: 4%
inhibition [21]: 20%
inhibition [22]: 60%
inhibition [23]: 61%
inhibition [24]: -5%
inhibition [25]: 8%
inhibition [26]: -1%
inhibition [27]: 4%
inhibition [28]: 2%
inhibition [29]: 5%
inhibition [30]: 3%
inhibition [31]: -1%
inhibition [32]: -1%
inhibition [34]: 6%
inhibition [35]: 44%
inhibition [36]: 7.36%
inhibition [37]: 13.3%
inhibition [38]: 2.66%
inhibition [39]: -0.18%
inhibition [40]: 50.8%
inhibition [41]: 1%
Structure (SMILES): Cc1cc(OC2CCS(=O)(=O)CC2)cc(C)c1-c1cccc(COc2ccc(CCC(=O)O)c(F)c2)c1
inhibition [33]: 36%
